Measurements reported in US20250333377A1, “SOLID FORM OF NAPHTHYLAMINE MITOPHAGY INDUCER, AND PREPARATION METHOD THEREFOR, PHARMACEUTICAL COMPOSITION THEREOF AND USE THEREOF” (HANGZHOU PHECDAMED CO., LTD., priority 2023, published 2025).
Read-outs that look alike come from different tables or passages of the source.

Experiments:
[1] = Hygroscopicity (vapor sorption analyser, DVS); type: physicochemical
Description: Single crystalline sample of compound TJ01-013 is tested using a Waters vaporsorption analyser. Taking a dry weighing tray, and laying a single sample of crystal form flat in the weighing tray, and the volume of the loaded samples is about ⅓ to ⅔ of that of the weighing tray. Instrument parameters are set as follows: temperature: 25° C.; equilibrium: dm/dt=0.01%/min (minimum time: 10 minutes, and maximum time: 180 minutes); drying: drying 120 minutes under 0% RH; RH (%) testing gradient: 10%; RH (%) test gradient range: 0%-90%-0%.

Rat pharmacokinetic test = type: in vivo, SD rats; settings: for AUC(0-t): read-out: AUC0-24 h; for MRT inf: read-out: MRT0-∞; for MRT last: read-out: MRT0-24 h
Description: The plasma kinetic characteristics of the prototype drugs in healthy SD rats are analyzed after three doses of single gavage administration, a single dose of consecutive multiple gavage administration, and a single dose of intravenous injection administration of the sodium salt D crystal form of TJ01-013. These include the rate of absorption and degree of exposure, individual differences, dose relationship, rate of elimination, attainment of steady state, and possible accumulation of D crystal form of TJ01-013. After SD rats are administrated 10, 30, and 90 mg/kg of D crystal form of TJ01-013 by gavage in a single dose, 30 mg/kg of D crystal form of TJ01-013 by gavage in a single dose once per day for 7 consecutive days, and 10 mg/kg of D crystal form of TJ01-013 by intravenous injection in a single dose, the data of the concentrations of the prototype drugs in plasma at different time points in each animal are calculated by applying WinNonlin software fitting, and the mean pharmacokinetic parameters of each group of 6 animals (half of males and half of females) are summarized as shown in Table 12 below.

[2] = both sexes, SD, rat, plasma, po, 10 mg/kg, SD rats, single gavage, 10 mg/kg
[3] = both sexes, SD, rat, plasma, po, 30 mg/kg, SD rats, multiple gavage, 30 mg/kg once per day for 7 days
[4] = both sexes, SD, rat, plasma, po, 30 mg/kg, SD rats, single gavage, 30 mg/kg
[5] = both sexes, SD, rat, plasma, po, 90 mg/kg, SD rats, single gavage, 90 mg/kg
[6] = both sexes, Sprague-Dawley (SD), rat, plasma, SD rats, single intravenous injection, 10 mg/kg
[7] = both sexes, rat, plasma, po, SD rats, single gavage, 10 mg/kg
[8] = both sexes, rat, plasma, po, SD rats, single gavage, 30 mg/kg
[9] = both sexes, rat, plasma, po, SD rats, single gavage, 90 mg/kg

O=C(O)C[S+]([O-])c1cc(NS(=O)(=O)c2ccc(Br)cc2)c2ccccc2c1O (stereo not shown) [Embodiment 4]
Percentage weight gain by moisture absorption ([1]; 90% RH, 25° C.): 2.13% | Hygroscopicity (in words) ([1]; according to Table 7, 90% RH): slightly hygroscopic | Dose relationship of exposure (Cmax, AUC0-24 h) (Rat pharmacokinetic test; SD rats, single gavage 10, 30, 90 mg/kg): the increase ratio is smaller than that of the dose | Pharmacokinetic characteristics (in words) (Rat pharmacokinetic test; SD rats, single gavage and intravenous administration): rapid absorption, low apparent volume of distribution and moderate elimination rate | Tissue distribution (in words) (Rat pharmacokinetic test; SD rats, single intravenous administration): low degree tissue distribution | Difference of plasma pharmacokinetic parameters between male and female (Rat pharmacokinetic test; SD rats, single intravenous, single and multiple gavage): no significant difference between male and female | AUC(0-t) (Rat pharmacokinetic test; both sexes, SD, rat, plasma, iv, 10 mg/kg, SD rats, single intravenous injection, 10 mg/kg): 112000 ± 11000 ng·h/mL | AUC(0-inf) (Rat pharmacokinetic test; both sexes, SD, rat, plasma, po, 10 mg/kg, SD rats, single gavage): 11100 ± 4320 ng·h/mL | AUC(0-t) (Rat pharmacokinetic test; [2]): 10700 ± 4440 ng·h/mL | MRT inf (Rat pharmacokinetic test; [2]): 4.82 ± 1.4 h | AUC(0-inf) (Rat pharmacokinetic test; [3]): 26600 ± 14200 ng·h/mL | AUC(0-t) (Rat pharmacokinetic test; [3]): 26200 ± 13700 ng·h/mL | MRT inf (Rat pharmacokinetic test; [3]): 3.86 ± 0.947 h | AUC(0-inf) (Rat pharmacokinetic test; both sexes, SD, rat, plasma, po, 30 mg/kg, SD rats, single gavage): 22800 ± 6860 ng·h/mL | AUC(0-t) (Rat pharmacokinetic test; [4]): 22100 ± 6660 ng·h/mL | MRT inf (Rat pharmacokinetic test; [4]): 5.11 ± 1.84 h | AUC(0-inf) (Rat pharmacokinetic test; both sexes, SD, rat, plasma, po, 90 mg/kg, SD rats, single gavage): 50100 ± 12200 ng·h/mL | AUC(0-t) (Rat pharmacokinetic test; [5]): 49900 ± 12200 ng·h/mL | MRT inf (Rat pharmacokinetic test; [5]): 3.94 ± 0.754 h | AUC(0-inf) (Rat pharmacokinetic test; both sexes, Sprague-Dawley (SD), rat, plasma, iv, 10 mg/kg, SD rats, single intravenous injection): 113000 ± 11000 ng·h/mL | MRT inf (Rat pharmacokinetic test; both sexes, Sprague-Dawley (SD), rat, plasma, iv, 10 mg/kg, SD rats, single intravenous injection, 10 mg/kg): 2.06 ± 0.192 h | Cmax at 7 days (Rat pharmacokinetic test; both sexes, Sprague-Dawley (SD), rat, plasma, po, SD rats, multiple gavage, 30 mg/kg once per day for 7 days): 5900 ± 3210 ng/mL | Tmax at 7 days (Rat pharmacokinetic test; both sexes, Sprague-Dawley (SD), rat, plasma, po, SD rats, multiple gavage, 30 mg/kg once per day for 7 days, median (min, max)): 1 h | Tmax (Rat pharmacokinetic test; both sexes, Sprague-Dawley (SD), rat, plasma, po, SD rats, single gavage, 10 mg/kg, median (min, max)): 0.5 h | Tmax (Rat pharmacokinetic test; both sexes, Sprague-Dawley (SD), rat, plasma, po, SD rats, single gavage, 30 mg/kg, median (min, max)): 0.5 h | Tmax (Rat pharmacokinetic test; both sexes, Sprague-Dawley (SD), rat, plasma, po, SD rats, single gavage, 90 mg/kg, median (min, max)): 1 h | clearance (Rat pharmacokinetic test; [6]): 1.49 mL/min/kg | half-life (Rat pharmacokinetic test; [6]): 2.26 ± 0.222 h | MRT last (Rat pharmacokinetic test; [6]): 2 ± 0.168 h | bioavailability (Rat pharmacokinetic test; both sexes, rat, plasma, oral, SD rats, single gavage 10 mg/kg versus intravenous 10 mg/kg, read-out: F (absolute bioavailability)): 9.55% | half-life at 7 days (Rat pharmacokinetic test; both sexes, rat, plasma, po, SD rats, multiple gavage, 30 mg/kg once per day for 7 days): 1.94 ± 0.898 h | Cmax (Rat pharmacokinetic test; [7]): 3130 ± 1660 ng/mL | half-life (Rat pharmacokinetic test; [7]): 3.86 ± 1.47 h | MRT last (Rat pharmacokinetic test; [7]): 3.84 ± 0.708 h | Cmax (Rat pharmacokinetic test; [8]): 4730 ± 1200 ng/mL | half-life (Rat pharmacokinetic test; [8]): 3.54 ± 2.55 h | MRT last (Rat pharmacokinetic test; [8]): 4.42 ± 0.923 h | Cmax (Rat pharmacokinetic test; [9]): 9980 ± 1850 ng/mL | half-life (Rat pharmacokinetic test; [9]): 2.08 ± 0.754 h | MRT last (Rat pharmacokinetic test; [9]): 3.89 ± 0.756 h | concentration at 5 min (Rat pharmacokinetic test; both sexes, rat, plasma, SD rats, single intravenous injection, 10 mg/kg, read-out: C5 min): 79900 ± 11600 ng/mL | Vd (Rat pharmacokinetic test; both sexes, rat, plasma, SD rats, single intravenous injection, 10 mg/kg, read-out: Vss): 0.184 L/kg | Accumulation (Rat pharmacokinetic test; rats, 30 mg/kg gavage once a day for 7 consecutive days): no obvious accumulation
